Laboratory results reported in PMC12368606 (2025).

Experiments:
[1] = test system: Seq1s (RNA, hairpin) ACCGUGACGGGCCUUUUUGGCUAUACGCGGU; assay: UV thermal melting; conditions: 10 μM NA; Tm 66.9 ± 2.0 to 72.1 ± 1.5 °C
[2] = test system: Seq1s (RNA, hairpin) ACCGUGACGGGCCUUUUUGGCUAUACGCGGU; assay: CSI-TOF mass spectrometry; conditions: 40 μM NA, 5 μM RNA
[3] = test system: Seq1s-4U (RNA, hairpin) ACCGUGACGGGCCUUUUGGCUAUACGCGGU; assay: NMR solution structure and titration; conditions: phosphate buffer, 5% D2O for titration

ΔTm [1]: 5.2 °C
binding [2]: yes
binding [3]: yes
Structure (SMILES): Cc1ccc2ccc(NC(=O)CCNCCC(=O)NCc3ccc4ccc(=O)[nH]c4n3)nc2n1
